Experimental data taken from patent publication EP0393604B1, “6,11-Dihydro-5H-pyrido(2,3-b)(1,5,)benzodiazepin-5-ones and thiones and their use in the prevention or treatment of AIDS” (priority 1989, dated 1990).
Read-outs that look alike come from different tables or passages of the source.

Target: T1, HIV-1 RT (Human immunodeficiency virus type 1 group M subtype B, UniProt P03367)
T1 construct: Reverse transcriptase enzyme from the LAV strain of Human Immunodeficiency Virus (HIV-1) (1) was isolated from the bacterial strain JM109; made in house; host or cells: E. coli JM109, clone pBRTprt1+ in vector pIBI21, lac promoter, IPTG induction
Assay: Reverse Transcriptase (RT) Assay: inhibition of RNA-dependent DNA polymerase activity
Format: biochemical
Conditions: for inhibition at 10 µg/mL: read-out: RT Inhibition % @ 10µg/ml
Excerpt: Utilizing the Reverse Transcriptase (RT) Assay descibed below, compounds can be tested for their ability to inhibit the RNA-dependent DNA polymerase activity of HIV-1 RT. Certain specific compounds of formula I described in the Examples which appear below, were so tested. The above-described compounds of formula IA were also so tested.
Among the enzymes for which Human Immunodeficiency Virus (HIV-1) encodes is a reverse transcriptase (1), so-named because it transcribes a DNA copy from an RNA template. This activity can be quantitatively measured in a cell-free enzyme assay which has been previously described (2), and is based upon the observation that reverse transcriptase is able to use a synthetic template [poly r(C) primed with oligo d(G)] to transcribe a radio-labelled, acid-precipitable DNA strand utilizing ^3H-dGTP as a substrate.
Reverse transcriptase enzyme from the LAV strain of Human Immunodeficiency Virus (HIV-1) (1) was isolated from the bacterial strain JM109 (3) expressing the DNA clone pBRTprt1+ (2) which is under the control of the lac promoter in the expression vector pIBI21 (4). An overnight culture grown in 2XYT medium (37°C, 225 rpm) (5) supplemented with 100 µg/ml ampicillin for positive selection is inoculated at a 1:40 dilution into M9 medium supplemented with 10µg/ml thiamine, 0.5% casamino acids, and 50 µg/ml ampicillin (5). The culture is incubated (37°C, 225 rpm) until it reaches an OD540 of 0.3-0.4. At that time the repressor inhibitor IPTG (isopropyl b-D-thiogalactopyranoside) is added to 0.5mM and the mixture is incubated for 2 additional hours. Bacteria are pelleted, resuspended in a 50mM Tris, 0.6mM EDTA, 0.375M NaCl buffer and digested by the addition of lysozyme (1mg/ml) for 30 minutes on ice. The cells are lysed by the addition of 0.2% NP-40 and brought to 1M NaCl.
After removal of the insoluble debris by centrifugation, the protein is precipitated by the addition of 3 volumes of water-saturated ammonium sulfate. The enzyme is pelleted, resuspended in RT buffer (50mM Tris pH 7.5. 1mM EDTA, 5mM DTT, 0.1% NP-40, 0.1M NaCl, and 50% glycerol), and stored at -70°C for further use.
The 2X concentrated stock reaction mixture is aliquoted and stored at -20°C. The mixture is stable and thawed for use in each assay. This enzyme assay has been adapted to a 96 well microtiter plate system, and has been previously described (6). Tris buffer (50 mM, pH 7.4), vehicle (solvent diluted to match the compound dilution), or compounds in vehicle are dispensed into 96-well microtiter plates (10µl/well: 3 wells/compound). The HIV-1 RT enzyme is thawed and diluted in 50mM Tris pH 7.4 so that fifteen µl of diluted enzyme contain 0.001 Unit (one unit is that amount of enzyme to transform 1 micromole of substrate per minute at 25°C) and 15µl are dispensed per well. Twenty µl of 0.12 - 0.5M EDTA are added to the first three wells of the microtiter plate. EDTA chelates the Mg^++ present and prevents reverse transcription. This group serves as background polymerization which is subtracted from all other groups. Twenty-five ul of the 2X reaction mixture are added to all wells and the assay is allowed to incubate at room temperature for 60 minutes. The assay is terminated by precipitating the DNA in each well with 50µl of trichloracetic acid (TCA) (10% w/v) in sodium pyrophosphate (1% w/v). The microtiter plate is incubated for 15 minutes at 4°C and the precipitate is fixed onto #30 glass fiber paper (Schleicher & Schuell) using a Skatron semi-automatic harvester. The filters are then washed with additional TCA (5%) containing sodium pyrophosphate (1%), rinsed with aqueous ethanol (70%), dried, and transferred to scintillation vials (6). Each vial receives 2 mls of scintillation cocktail and is counted in a Beckman beta counter. […]

[1] = 10µg/ml, Table I, compounds of formula I
[2] = 10µg/ml, Table II, known compounds of formula IA

inhibition at 10 µg/mL [1] [%]	Compound	other results
99	CCN1c2cc(C)c(C)cc2N(C)C(=O)c2cccnc21 [Example 29, 6,11-Dihydro-11-ethyl-6,8,9-trimethyl-5H-pyrido[2,3-b][1,5]benzodiazepin-5-one]	–
92	CCN1C(=O)c2cccnc2Nc2cccc(C)c21 [Example 31, 6,11-Dihydro-6-ethyl-7-methyl-5H-pyrido[2,3-b][1,5]benzodiazepin-5-one]	–
88	CCN1C(=O)c2cccnc2N(C)c2ccccc21 [Example 11, 6,11-Dihydro-6-ethyl-11-methyl-5H-pyrido[2,3-b][1,5]benzodiazepin-5-one]	–
29	CC(=O)N1c2ccccc2N(C)C(=O)c2cccnc21 [Example 18, 11-Acetyl-6,11-dihydro-6-methyl-5H-pyrido[2,3-b][1,5]benzodiazepin-5-one]	–
92	CCCN1c2ccccc2N(C)C(=O)c2cccnc21 [Example 3, 6,11-Dihydro-6-methyl-11-propyl-5H-pyrido[2,3-b][1,5]benzodiazepin-5-one]	–
–	CN1C(=O)c2cccnc2N(CCF)c2ccccc21 [Example 33, 6,11-Dihydro-11-(2-fluoroethyl)-6-methyl-5H-pyrido[2,3-6][1,5]benzodiazepin-5-one]	inhibition at 10 µg/mL: 97%
68	CN1C(=O)c2cccnc2N(C)c2ccccc21 [Example 10, 6,11-Dihydro-6,11-dimethyl-5H-pyrido[2,3-b][1,5]benzodiazepin-5-one]	–
50	CN1C(=O)c2cccnc2N(CCO)c2ccccc21 [Example 7, 6,11-Dihydro-11-(2-hydroxyethyl)-6-methyl-5H-pyrido[2,3-b][1,5]benzodiazepin-5-one]	–
44	Cc1cc(C)c2c(n1)N(C)c1cc(C)c(C)cc1N(C)C2=O [Example 16, 6,11-Dihydro-2,4,6,8,9,11-hexamethyl-5H-pyrido[2,3-b][1,5]benzodiazepin-5-one]	–
–	CN1C(=O)c2cccnc2Nc2ccccc21 [Formula IA b, 6-methyl-6,11-dihydro-5H-pyrido[2,3-b][1,5]benzodiazepin-5-one]	inhibition at 10 µg/mL [2]: 43%
94	CCN1c2ccc(C(=O)OC)cc2N(C)C(=O)c2cccnc21 [Example 30, 6,11-Dihydro-8-methoxycarbonyl-11-ethyl-6-methyl-5H-pyrido[2,3-b][1,5] benzodiazepin-5-one]	–
–	CC(C)CN1C(=O)c2cccnc2Nc2ccccc21 [Formula IA g, 6-isobutyl-6,11-dihydro-5H-pyrido[2,3-b][1,5]benzodiazepin-5-one]	inhibition at 10 µg/mL [2]: 33%
–	Cc1cc2c(cc1C)N(C)C(=O)c1cccnc1N2 [Formula IA e, 6,8,9-trimethyl-6,11-dihydro-5H-pyrido[2,3-b][1,5]benzodiazepin-5-one]	RT Inhibition % @ 10µg/ml [2]: 65%
37	CN1c2ccccc2NC(=O)c2cccnc21 [Example 1, 6,11-Dihydro-11-methyl-5H-pyrido[2,3-b][1,5]benzodiazepin-5-one]	–
85	CCN1c2ccccc2N(CF)C(=O)c2cccnc21 [Example 34, 6,11-Dihydro-11-ethyl-6-fluoromethyl-5H-pyrido-[2,3-b][1,5]benzodiazepin-5-one]	–
–	CCN1C(=O)c2cccnc2Nc2cc(C)c(C)cc21 [Formula IA f, 6-ethyl-8,9-dimethyl-6,11-dihydro-5H-pyrido[2,3-b][1,5]benzodiazepin-5-one]	inhibition at 10 µg/mL [2]: 95%

inhibition at 10 µg/mL [1] [%]	Compound	other results
46	CCCCN1c2ccccc2N(C)C(=O)c2cccnc21 [Example 6, 11-Butyl-6,11-dihydro-6-methyl-5H-pyrido[2,3-b][1,5]-benzodiazepin-5-one]	–
75	CCCCN1C(=O)c2cccnc2N(C)c2ccccc21 [Example 14, 6-Butyl-6,11-dihydro-11-methyl-5H-pyrido[2,3-b][1,5] benzodiazepin-5-one]	–
–	Cc1ccc2c(c1)N(C)C(=O)c1c(C)cc(C)nc1N2 [Formula IA a, 2,4,6,8-tetramethyl-6,11-dihydro-5H-pyrido[2,3-b][1,5]benzodiazepin-5-one]	inhibition at 10 µg/mL [2]: 58%
73	CN1C(=O)c2cccnc2N(Cc2ccccc2)c2ccccc21 [Example 25, 6,11-Dihydro-11-benzyl-6-methyl-5H-pyrido[2,3-b][1,5]benzodiazepin-5-one]	–
89	CCCN1C(=O)c2cccnc2N(C)c2ccccc21 [Example 12, 6,11-Dihydro-11-methyl-6-propyl-5H-pyrido[2,3-b][1,5]benzodiazepin-5-one]	–
69	CSCN1C(=O)c2cccnc2N(CSC)c2cc(Cl)ccc21 [Example 20, 6,11-bis-(methylthiomethyl)-9-chloro-6,11-dihydro-5H-pyrido-[2,3-b][1,5]benzodiazepin-5-one]	–
–	CCN1C(=O)c2cccnc2Nc2cc(C)ccc21 [Formula IA h, 6-ethyl-9-methyl-6,11-dihydro-5H-pyrido[2,3-b][1,5]benzodiazepin-5-one]	inhibition at 10 µg/mL [2]: 78%
65	Cc1cc2c(cc1C)N(C)C(=O)c1cccnc1N2 [Example 28, 6,11-Dihydro-6,8,9-trimethyl-5H-pyrido[2,3-b][1,5]benzodiazepin-5-one]	–
64	CCOC(=O)CN1c2ccccc2N(C)C(=O)c2cccnc21 [Example 27, 6,11-Dihydro-11-(ethoxycarbonyl)methyl-6-methyl-5H-pyrido[2,3-b][1,5] benzodiazepin-5-one]	–
91	CC(C)N1C(=O)c2cccnc2N(C)c2ccccc21 [Example 13, 6,11-Dihydro-11-methyl-6-methylethyl-5H-pyrido[2,3-b][1,5]benzodiazepin-5-one]	–
–	O=C1Nc2ccccc2Nc2ncccc21 [Formula IA c, 6,11-dihydro-5H-pyrido[2,3-b][1,5]benzodiazepin-5-one]	inhibition at 10 µg/mL [2]: 22%
–	CCN1C(=O)c2cccnc2Nc2ccccc21 [Formula IA d, 6-ethy-6,11-dihydro-5H-pyrido[2,3-b][1,5]benzodiazepin-5-one]	inhibition at 10 µg/mL [2]: 69%
100	CCN1c2ccccc2NC(=O)c2cccnc21 [Example 23, 6,11-Dihydro-11-ethyl-5H-pyrido[2,3-b][1,5]benzodiazepin-5-one]	–
51	Cc1cccc2c1NC(=O)c1cccnc1N2 [Example 32, 6,11-Dihydro-7-methyl-5H-pyrido[2,3-b][1,5]benzodiazepin-5-one]	–
96	CCN1C(=O)c2cccnc2N(CC)c2ccccc21 [Example 21, 6,11-Diethyl-6,11-dihydro-5H-pyrido[2,3-b][1,5]benzodiazepin-5-one]	–
–	CCN1c2ccccc2NC(=S)c2cccnc21 [Example 24, 6,11-Dihydro-11-ethyl-5H-pyrido[2,3-b][1,5]benzodiazepin-5-thione]	inhibition at 10 µg/mL: 100%

Compound	inhibition at 10 µg/mL [1] [%]	other results
CN1C(=O)c2cccnc2N(CC(=O)OC(C)(C)C)c2ccccc21 [Example 26, 6,11-Dihydro-11-(t-butoxycarbonyl)methyl-6-methyl-5H-pyrido[2,3-b][1,5] benzodiazepin-5-one]	81	–
